Results from patent publication US12091426B2, “Bifunctional degraders of hematopoietic progenitor kinase and therapeutic uses thereof” (Nurix Therapeutics, Inc., priority 2021, dated 2024).

Molecular target: T1, HPK1 (Homo sapiens, UniProt Q92918)
T1 construct: A HiBiT tag was introduced by CRISPR on the N terminus of HPK1 in Jurkat cells; host or cells: Jurkat cells (ATCC TIB-152), monoclonal line with CRISPR knock-in of HiBiT at the endogenous HPK1 locus
Test: HPK1 Cellular HiBit Degradation Assay
Assay type: cell-based
Conditions: HiBiT HPK1 Jurkat cells, 24 hrs; for DC50: concentration at which 50% of HPK1 was remaining, read-out: DC50 Category; for Dmax: Jurkat, read-out: Dmax Category
In short: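 HiBiT-HPK1 Jurkat (CRISPR, N-term tag), 3×10^4 cells/well, RPMI 1640 + 10% FBS; CTMs 10 uM–0.1 nM, 11 pts; 24 hrs, 37° C/5% CO2; lytic HiBiT luminescence; % remaining vs DMSO, parental background subtracted; 4-parameter fit → DC50, Dmax.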

[1] = maximum degradation vs DMSO vehicle control

T1 sequence (Q92918 whole entry): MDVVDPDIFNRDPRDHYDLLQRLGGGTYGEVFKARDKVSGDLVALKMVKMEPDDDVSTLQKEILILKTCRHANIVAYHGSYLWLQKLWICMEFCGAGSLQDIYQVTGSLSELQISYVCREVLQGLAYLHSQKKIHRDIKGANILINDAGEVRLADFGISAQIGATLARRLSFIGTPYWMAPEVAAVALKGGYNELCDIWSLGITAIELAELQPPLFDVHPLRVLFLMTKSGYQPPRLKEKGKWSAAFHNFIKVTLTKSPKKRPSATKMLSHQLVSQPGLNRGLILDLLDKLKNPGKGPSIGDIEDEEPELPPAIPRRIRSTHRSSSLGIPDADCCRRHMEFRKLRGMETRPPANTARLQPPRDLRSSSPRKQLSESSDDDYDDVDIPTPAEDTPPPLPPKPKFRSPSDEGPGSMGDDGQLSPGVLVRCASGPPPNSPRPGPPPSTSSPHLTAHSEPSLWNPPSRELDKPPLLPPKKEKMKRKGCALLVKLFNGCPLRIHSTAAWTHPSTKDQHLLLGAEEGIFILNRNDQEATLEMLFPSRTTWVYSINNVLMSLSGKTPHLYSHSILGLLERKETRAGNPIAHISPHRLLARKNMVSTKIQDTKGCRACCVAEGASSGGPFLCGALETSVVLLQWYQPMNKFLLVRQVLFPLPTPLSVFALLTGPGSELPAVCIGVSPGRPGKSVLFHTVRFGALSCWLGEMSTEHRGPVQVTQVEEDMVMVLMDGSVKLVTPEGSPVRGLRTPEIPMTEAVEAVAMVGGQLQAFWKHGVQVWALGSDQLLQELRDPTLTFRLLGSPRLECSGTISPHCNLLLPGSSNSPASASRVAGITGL

DC50 | Dmax [1] | SMILES | Dmax Category [1]
< 100 nM | 50 to 70% | CC(C)n1cnc2cc(-c3ccc4c(c3)N([C@H]3C[C@@H](N5CCCCC5)C3)C(=O)C43CCN(C(=O)C4CCN(C(=O)C5CCN(c6ccc(C7CCC(=O)NC7=O)cn6)CC5)CC4)CC3)nc(NC3CCOCC3)c21 (mixture of isomers) [Example 78, (3RS)-3-[6-(4-{4-[(6-{4-[(oxan-4-yl)amino]-3-(propan-2-yl)-3H-imidazo[4,5-c]pyridin-6-yl}-2-oxo-1-[(1S,3S)-3-(piperidin-1-yl)cyclobutyl]-1,2-dihydrospiro[indole-3,4′-piperidin]-1′-yl)carbonyl]piperidine-1-carbonyl}piperidin-1-yl)pyridin-3-yl]piperidine-2,6-dione] | –
100 to 500 nM | 50 to 70% | CC(C)n1cnc2cc(-c3ccc4c(c3)N([C@H]3C[C@@H](N5CCCCC5)C3)C(=O)C43CCN(C(=O)C4CCN(C(=O)[C@@H]5CCN(c6ccc(C7CCC(=O)NC7=O)cn6)C5)CC4)CC3)nc(Nc3ccccc3F)c21 (mixture of isomers) [Example 47, (3RS)-3-{6-[(3R)-3-{4-[(6-{4-[(2-fluorophenyl)amino]-3-(propan-2-yl)-3H-imidazo[4,5-c]pyridin-6-yl}-2-oxo-1-[(1S,3S)-3-(piperidin-1-yl)cyclobutyl]-1,2-dihydrospiro[indole-3,4′-piperidin]-1′-yl)carbonyl]piperidine-1-carbonyl}pyrrolidin-1-yl]pyridin-3-yl}piperidine-2,6-dione] | –
< 100 nM | > 85% | CC(C)n1cnc2cc(-c3ccc4c(c3)N([C@H]3C[C@@H](N5CCCCC5)C3)C(=O)C43CCN(C(=O)CC4CCN(C(=O)[C@H]5CC[C@H](Oc6ccc(C7CCC(=O)NC7=O)cn6)CC5)CC4)CC3)nc(NC3CC3)c21 (stereo partly drawn) [Example 161, 3-(6-{[(1R,4R)-4-[4-(2-{6-[4-(cyclopropylamino)-3-(propan-2-yl)-3H-imidazo[4,5-c]pyridin-6-yl]-2-oxo-1-[(1S,3S)-3-(piperidin-1-yl)cyclobutyl]-1,2-dihydrospiro[indole-3,4′-piperidin]-1′-yl}-2-oxoethyl)piperidine-1-carbonyl]cyclohexyl]oxy}pyridin-3-yl)piperidine-2,6-dione] | –
< 100 nM | 70 to 85% | CC(C)n1cnc2cc(-c3ccc4c(c3)N([C@H]3C[C@@H](N5CCCCC5)C3)C(=O)C43CCN(C(=O)[C@H]4[C@@H]5CN(C(=O)C6CCN(c7ccc(C8CCC(=O)NC8=O)cn7)CC6)C[C@@H]54)CC3)nc(NC3CC3)c21 (mixture of isomers) [Example 260, (3RS)-3-(6-{4-[(1R,5S,6S)-6-({6-[4-(cyclopropylamino)-3-(propan-2-yl)-3H-imidazo[4,5-c]pyridin-6-yl]-2-oxo-1-[(1S,3S)-3-(piperidin-1-yl)cyclobutyl]-1,2-dihydrospiro[indole-3,4′-piperidin]-1′-yl}carbonyl)-3-azabicyclo[3.1.0]hexane-3-carbonyl]piperidin-1-yl}pyridin-3-yl)piperidine-2,6-dione] | –

More lines, now with the values behind:

SMILES | DC50 | Dmax [1] | Dmax Category [1]
Cc1cc(C2CCC(=O)NC2=O)cnc1N1CCC(C(=O)N2CCC(C)(C(=O)N3CCC4(CC3)C(=O)N(C3CC(N5CCCCC5)C3)c3cc(-c5cc6ncn(C(C)C)c6c(NC6CC6)n5)ccc34)CC2)CC1 (racemic) [Example 148, (3RS)-3-(6-{4-[4-({6-[4-(cyclopropylamino)-3-(propan-2-yl)-3H-imidazo[4,5-c]pyridin-6-yl]-2-oxo-1-[(1S,3S)-3-(piperidin-1-yl)cyclobutyl]-1,2-dihydrospiro[indole-3,4′-piperidin]-1′-yl}carbonyl)-4-methylpiperidine-1-carbonyl]piperidin-1-yl}-5-Methylpyridin-3-yl)piperidine-2,6-dione] | < 100 nM | – | B (B: >70%-<85%)
CC(C)n1cnc2cc(-c3ccc4c(c3)N([C@H]3C[C@@H](N5CCCCC5)C3)C(=O)C43CCN(C(=O)C4CCN(C(=O)CN5CCN(c6ccc(C7CCC(=O)NC7=O)cn6)CC5)CC4)CC3)nc(NC3CC3)c21 (mixture of isomers) [Example 94, (3RS)-3-[6-(4-{2-[4-({6-[4-(cyclopropylamino)-3-(propan-2-yl)-3H-imidazo[4,5-c]pyridin-6-yl]-2-oxo-1-[(1S,3S)-3-(piperidin-1-yl)cyclobutyl]-1,2-dihydrospiro[indole-3,4′-piperidin]-1′-yl}carbonyl)piperidin-1-yl]-2-oxoethyl}piperazin-1-yl)pyridin-3-yl]piperidine-2,6-dione] | < 100 nM | 50 to 70% | –
CC(C)n1cnc2cc(-c3ccc4c(c3)N([C@H]3C[C@@H](N5CCCCC5)C3)C(=O)C43CCN(C(=O)[C@H]4[C@@H]5C[C@H]4CN(C(=O)C4CCN(c6ccc(C7CCC(=O)NC7=O)cn6)CC4)C5)CC3)nc(NC3CC3)c21 (stereo partly drawn) [Example 239, 3-(6-(4-((1R,5S,6S)-6-(6-(4-(cyclopropylamino)-3-isopropyl-3H-imidazo[4,5-c]pyridin-6-yl)-2-oxo-1-((1S,3S)-3-(piperidin-1-yl)cyclobutyl)spiro[indoline-3,4′-piperidine]-1′-carbonyl)-3-Azabicyclo[3.1.1]heptane-3-carbonyl)piperidin-1-yl)pyridin-3-yl)piperidine-2,6-dione] | < 100 nM | 50 to 70% | –
CC(C)n1cnc2cc(-c3ccc4c(c3)N([C@H]3C[C@@H](N5CCCCC5)C3)C(=O)C43CCN(C(=O)c4ccc(C(=O)N5CCN(c6ccc(C7CCC(=O)NC7=O)cn6)C[C@H]5C)cc4)CC3)nc(Nc3ccccc3F)c21 (mixture of isomers) [Example 100, (3RS)-3-{6-[(3R)-4-{4-[(6-{4-[(2-fluorophenyl)amino]-3-(propan-2-yl)-3H-imidazo[4,5-c]pyridin-6-yl}-2-oxo-1-[(1S,3S)-3-(piperidin-1-yl)cyclobutyl]-1,2-dihydrospiro[indole-3,4′-piperidin]-1′-yl)carbonyl]benzoyl}-3-methylpiperazin-1-yl]pyridin-3-yl}piperidine-2,6-dione] | 100 to 500 nM | 70 to 85% | –
CC(C)n1cnc2cc(-c3ccc4c(c3)N([C@H]3C[C@@H](N5CCCCC5)C3)C(=O)C43CCN(C(=O)C4(C)CCN(C(=O)C5CCN(c6ccc(C7CCC(=O)NC7=O)cc6)CC5)CC4)CC3)nc(Nc3ccncc3F)c21 (mixture of isomers) [Example 112, (3RS)-3-[4-(4-{4-[(6-{4-[(3-fluoropyridin-4-yl)amino]-3-(propan-2-yl)-3H-imidazo[4,5-c]pyridin-6-yl}-2-oxo-1-[(1S,3S)-3-(piperidin-1-yl)cyclobutyl]-1,2-dihydrospiro[indole-3,4′-piperidin]-1′-yl)carbonyl]-4-methylpiperidine-1-carbonyl}piperidin-1-yl)phenyl]piperidine-2,6-dione] | < 100 nM | 70 to 85% | –
CC(C)n1cnc2cc(-c3ccc4c(c3)N([C@H]3C[C@@H](N5CCCCC5)C3)C(=O)C43CCN(C(=O)[C@H]4CC[C@H](C(=O)N5CCC(N(C)c6ccc(C7CCC(=O)NC7=O)cn6)CC5)CC4)CC3)nc(NC3CC3)c21 (mixture of isomers) [Example 137, (3RS)-3-{6-[methyl({1-[(1R,4R)-4-({6-[4-(cyclopropylamino)-3-(propan-2-yl)-3H-imidazo[4,5-c]pyridin-6-yl]-2-oxo-1-[(1S,3S)-3-(piperidin-1-yl)cyclobutyl]-1,2-dihydrospiro[indole-3,4′-piperidin]-1′-yl}carbonyl)cyclohexanecarbonyl]piperidin-4-yl})amino]pyridin-3-yl}piperidine-2,6-dione] | < 100 nM | 70 to 85% | –
CC(C)n1cnc2cc(-c3ccc4c(c3)N([C@H]3C[C@@H](N5CCCCC5)C3)C(=O)C43CCN(C(=O)C[C@@H]4CCCN(C(=O)CC5CCN(c6ccc(C7CCC(=O)NC7=O)cn6)CC5)C4)CC3)nc(NC3CC3)c21 (mixture of isomers) [Example 299, (3RS)-3-[6-(4-{2-[(3S)-3-(2-{6-[4-(cyclopropylamino)-3-(propan-2-yl)-3H-imidazo[4,5-c]pyridin-6-yl]-2-oxo-1-[(1S,3S)-3-(piperidin-1-yl)cyclobutyl]-1,2-dihydrospiro[indole-3,4′-piperidin]-1′-yl}-2-oxoethyl)piperidin-1-yl]-2-oxoethyl}piperidin-1-yl)pyridin-3-yl]piperidine-2,6-dione] | 100 to 500 nM | 70 to 85% | –
CC(C)n1cnc2cc(-c3ccc4c(c3)N([C@H]3C[C@@H](N5CCCCC5)C3)C(=O)C43CCN(C(=O)C4CCN(C(=O)CC5CCN(c6ccc(C7CCC(=O)NC7=O)cn6)CC5)CC4)CC3)nc(NC3CC3)c21 (mixture of isomers) [Example 93, (3RS)-3-[6-(4-{2-[4-({6-[4-(cyclopropylamino)-3-(propan-2-yl)-3H-imidazo[4,5-c]pyridin-6-yl]-2-oxo-1-[(1S,3S)-3-(piperidin-1-yl)cyclobutyl]-1,2-dihydrospiro[indole-3,4′-piperidin]-1′-yl}carbonyl)piperidin-1-yl]-2-oxoethyl}piperidin-1-yl)pyridin-3-yl]piperidine-2,6-dione] | < 100 nM | 50 to 70% | –
CC(C)n1cnc2cc(-c3ccc4c(c3)N([C@H]3C[C@@H](N5CCCCC5)C3)C(=O)C43CCN(C(=O)C4C5CC4CN(C(=O)C4CCN(c6ccc(C7CCC(=O)NC7=O)cn6)CC4)C5)CC3)nc(NC3CC3)c21 (mixture of isomers) [Example 282, (3RS)-3-(6-{4-[6-({6-[4-(cyclopropylamino)-3-(propan-2-yl)-3H-imidazo[4,5-c]pyridin-6-yl]-2-oxo-1-[(1S,3S)-3-(piperidin-1-yl)cyclobutyl]-1,2-dihydrospiro[indole-3,4′-piperidin]-1′-yl}carbonyl)-3-azabicyclo[3.1.1]heptane-3-carbonyl]piperidin-1-yl}pyridin-3-yl)piperidine-2,6-dione] | < 100 nM | 70 to 85% | –
